target: T1, myeloperoxidase (MPO) (Homo sapiens, UniProt P05164); experiment: MPO peroxidation assay (Amplex Red assay); format: biochemical; conditions: MPO peroxidation, potency range class; read-out: Amplex Red IC50
T1 sequence (P05164 49-745): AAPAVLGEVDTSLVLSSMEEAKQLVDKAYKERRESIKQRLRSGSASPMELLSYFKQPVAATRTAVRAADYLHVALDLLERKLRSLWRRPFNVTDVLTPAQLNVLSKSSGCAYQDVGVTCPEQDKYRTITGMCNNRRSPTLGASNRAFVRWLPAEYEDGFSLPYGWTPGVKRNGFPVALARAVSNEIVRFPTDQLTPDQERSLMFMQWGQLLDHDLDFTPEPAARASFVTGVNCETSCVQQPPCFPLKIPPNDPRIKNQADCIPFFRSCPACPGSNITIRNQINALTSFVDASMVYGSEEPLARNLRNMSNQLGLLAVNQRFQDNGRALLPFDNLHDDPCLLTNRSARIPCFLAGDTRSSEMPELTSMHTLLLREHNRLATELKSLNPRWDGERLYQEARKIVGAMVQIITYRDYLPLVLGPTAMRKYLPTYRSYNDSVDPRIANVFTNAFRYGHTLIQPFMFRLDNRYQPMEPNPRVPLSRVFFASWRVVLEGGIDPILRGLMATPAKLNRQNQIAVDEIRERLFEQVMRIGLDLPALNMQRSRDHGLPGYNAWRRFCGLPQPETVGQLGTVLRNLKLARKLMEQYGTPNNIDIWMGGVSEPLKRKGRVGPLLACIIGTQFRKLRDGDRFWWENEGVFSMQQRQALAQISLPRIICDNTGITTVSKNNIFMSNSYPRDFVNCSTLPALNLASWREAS
In short: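 MPO (200 pM) with 40 nM H2O2 was preincubated 10 min at room temperature with inhibitor in 100 mM KPi pH 7.4. A mix of Amplex Red (200 μM) and H2O2 (10 mM) was then added and resorufin fluorescence read kinetically for 15 min. Slopes over 180–540 s gave % inhibition and IC50 via a four-parameter Hill fit.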

**Q.** `Nc1cc(OCc2ccc(-c3cccc(C(F)(F)F)c3)cc2)c2nn[nH]c2n1` [Example 120, 7-((3′-(Trifluoromethyl)biphenyl-4-yl)methoxy)-3H-[1,2,3]triazolo[4,5-b]pyridin-5-amine] was tested. Which IC50 did it give?
**A.** 101 to 999 nM

**Q.** Which IC50 does the source give for `Nc1cc(OCc2cccc(-c3cncc(F)c3)c2)c2nn[nH]c2n1` [Example 121, 7-(3-(5-Fluoropyridin-3-yl)benzyloxy)-3H-[1,2,3]triazolo[4,5-b]pyridin-5-amine] here?
**A.** 1 to 100 nM

**Q.** Which IC50 does the source give for `COc1ccc(-c2ccc(COc3cc(N)nc4[nH]nnc34)cc2)cc1` [Example 122, 7-((4′-Methoxybiphenyl-4-yl)methoxy)-3H-[1,2,3]triazolo[4,5-b]pyridin-5-amine] here?
**A.** 1 to 100 nM

**Q.** For `COc1ccccc1-c1ccc(COc2cc(N)nc3[nH]nnc23)cc1` [Example 123, 7-((2′-Methoxybiphenyl-4-yl)methoxy)-3H-[1,2,3]triazolo[4,5-b]pyridin-5-amine], which IC50 is on record?
**A.** 1 to 100 nM

**Q.** With `COc1cccc(Cl)c1-c1cccc(COc2cc(N)nc3[nH]nnc23)c1` [Example 124, 7-((2′-Chloro-6′-methoxybiphenyl-3-yl)methoxy)-3H-[1,2,3]triazolo[4,5-b]pyridin-5-amine] as the compound, how does the IC50 read?
**A.** 101 to 999 nM

**Q.** How did the IC50 turn out when `COc1ccccc1COc1cc(N)nc2[nH]nnc12` [Example 125] was run?
**A.** 1 to 100 nM

**Q.** Which IC50 does the source give for `Nc1cc(OC(c2ccccc2)C(F)(F)F)c2nn[nH]c2n1` (stereo not shown) [Example 126, 7-(2,2,2-Trifluoro-1-phenylethoxy)-3H-[1,2,3]triazolo[4,5-b]pyridin-5-amine] here?
**A.** 101 to 999 nM

**Q.** `COc1cccc(COc2cc(N)nc3[nH]nnc23)c1` [Example 127, 7-((3-Methoxybenzyl)oxy)-3H-[1,2,3]triazolo[4,5-b]pyridin-5-amine] was tested. Which IC50 did it give?
**A.** 101 to 999 nM

**Q.** Which IC50 does the source give for `CCOc1ccccc1COc1cc(N)nc2[nH]nnc12` [Example 128, 7-((2-Ethoxybenzyl)oxy)-3H-[1,2,3]triazolo[4,5-b]pyridin-5-amine] here?
**A.** 1 to 100 nM

**Q.** `Nc1cc(OCc2cccc(F)c2F)c2nn[nH]c2n1` [Example 129, 7-((2,3-Difluorobenzyl)oxy)-3H-[1,2,3]triazolo[4,5-b]pyridin-5-amine] was tested. Which IC50 did it give?
**A.** 1 to 100 nM

**Q.** Which IC50 does the source give for `Nc1cc(OCc2ccc(F)cc2F)c2nn[nH]c2n1` [Example 130, 7-((2,4-Difluorobenzyl)oxy)-3H-[1,2,3]triazolo[4,5-b]pyridin-5-amine] here?
**A.** 1 to 100 nM

**Q.** Which IC50 does the source give for `CS(=O)(=O)c1cc(Cl)ccc1COc1cc(N)nc2[nH]nnc12` [Example 131, 7-(4-Chloro-2-(methylsulfonyl)benzyloxy)-3H-[1,2,3]triazolo[4,5-b]pyridin-5-amine] here?
**A.** 1 to 100 nM

**Q.** How did the IC50 turn out when `Nc1cc(OCC2CCCCC2)c2nn[nH]c2n1` [Example 132, 7-(Cyclohexylmethoxy)-3H-[1,2,3]triazolo[4,5-b]pyridin-5-amine] was run?
**A.** 101 to 999 nM

**Q.** With `CC(Oc1cc(N)nc2[nH]nnc12)c1ccccc1F` (stereo not shown) [Example 140, 7-(1-(2-Fluorophenyl)ethoxy)-3H-[1,2,3]triazolo[4,5-b]pyridin-5-amine] as the compound, how does the IC50 read?
**A.** 101 to 999 nM

**Q.** Which IC50 does the source give for `CC(Oc1cc(N)nc2[nH]nnc12)c1ccc(OC(F)(F)F)cc1` (stereo not shown) [Example 142, 7-(1-(4-(Trifluoromethoxy)phenyl)ethoxy)-3H-[1,2,3]triazolo[4,5-b]pyridin-5-amine] here?
**A.** 1000 to 10000 nM

**Q.** Which IC50 does the source give for `CC(Oc1cc(N)nc2[nH]nnc12)c1cccc(OC(F)(F)F)c1` (stereo not shown) [Example 143, 7-(1-(3-(Trifluoromethoxy)phenyl)ethoxy)-3H-[1,2,3]triazolo[4,5-b]pyridin-5-amine] here?
**A.** 101 to 999 nM

**Q.** For `CC(=O)Nc1cccc(C(C)Oc2cc(N)nc3[nH]nnc23)c1` (stereo not shown) [Example 144, N-(3-(1-(5-Amino-3H-[1,2,3]triazolo[4,5-b]pyridin-7-yloxy)ethyl)phenyl)acetamide], which IC50 is on record?
**A.** 101 to 999 nM

**Q.** `CCC(Oc1cc(N)nc2[nH]nnc12)c1ccc(Cl)c(Cl)c1` (stereo not shown) [Example 145, 7-(1-(3,4-Dichlorophenyl)propoxy)-3H-[1,2,3]triazolo[4,5-b]pyridin-5-amine] was tested. Which IC50 did it give?
**A.** 101 to 999 nM

**Q.** How did the IC50 turn out when `Nc1cc(OCc2ccc3ccccc3c2)c2nn[nH]c2n1` [Example 147, 7-(Naphthalen-2-ylmethoxy)-3H-[1,2,3]triazolo[4,5-b]pyridin-5-amine] was run?
**A.** 101 to 999 nM
